Laboratory results taken from patent US20050192228A1, “Tripeptide derivatives for the treatment of neurodegenerative diseases” (priority 2001, published 2005).

Key:
Assay type in all cases: in vivo, Male Wistar rats
hippocampal arborization = assay: Vincristine model: loss of the hippocampal arborization; settings: vincristine 5 μg/kg/day
Procedure: Vincristine is an anticarcinogen that is used as a synchronizing agent. This molecule binds to the spindle of microtubules, thus blocking the cellular multiplication during the metaphase. It is a spindle poison. […] Vincristine binds to these neurofibrils thus causing peripheral neural conduction disorders in patients who are treated for neoplasm. These effects mainly affect the white matter of the axons. […] The repeated ICV administration of vincristine causes a degeneration of the conduction pathways with the appearance of abnormal neurofibrils similar to those observed in Alzheimer's disease. This degeneration mainly affects the periventricular structures. The hippocampi are affected through a decrease of their ramifications, while the cell bodies of the neurons are not altered. […] After this period, a protective layer forms on the glia cells that prevent the diffusion of vincristine from the CSF to the neighboring nerve cells. There is no spontaneously developing Alzheimer's disease in rats that would show the different types of degenerative lesions (beta-amyloid plaques, neurofibrillary and vacuolar degeneration). ICV administration of vincristine, which may cause neurofibrillary degeneration, may be used as a partial animal model of this disease. […]

[1] = system: rats given Gp120 (Gp120 model); assay: Gp120 model: sound avoidance conditioning (pole climbing test); settings: for percentage of avoidance, Day 0 / percentage of avoidance, Day 1 / percentage of avoidance, Day 2 / percentage of avoidance, Day 3 / percentage of avoidance, Day 4: Gp120 10 nM/kg/day for 5 days; for percentage of avoidance, Day 0 / percentage of avoidance, Day 1 / percentage of avoidance, Day 2 / percentage of avoidance, Day 3 / percentage of avoidance, Day 4 / AUC (average area under the learning curve per day): treatment 10 mg/kg/day for 5 days; for percentage of avoidance, Day 0: learning Day 0; for percentage of avoidance, Day 1: learning Day 1; for percentage of avoidance, Day 2: learning Day 2; for percentage of avoidance, Day 3: learning Day 3; for percentage of avoidance, Day 4: learning Day 4; for effect on learning parameters (in words) / AUC (average area under the learning curve per day): Gp120 model; for AUC (average area under the learning curve per day): maximum value 100
Text: 40 rats were slightly anesthetized by ether, an incision was made into the skin of the skull, and the skull was pierced by means of a dental burr. A metal needle was stereotaxically directed to the lateral ventricle, and then fixed by means of dental cement. Every day of the experiment, the patency of the needle was controlled.
Three days after introducing the needle (recovery from the postoperative shock) the non-anesthetized animals were divided into 2 groups: • one group of 10 rats to which 5 μl of physiological serum was injected • one group of 30 rats to which 5 μl of physiological serum containing Gp120 in an amount of 10 nM/kg was injected
This administration was repeated every day for a period of five days.
Ten days after the last administration of Gp120, the thirty rats were randomly divided into three groups of 10 animals each: • (i) one group of 10 rats received 1 ml/kg/day of normal saline (controls) for a period of 5 days. • (ii) one group of 10 rats received 10 mg/kg/day of Cinnamoyl-Gly-L-Phe-L-PrONH2 dissolved in normal saline for a period of 5 days. • (iii) one group of 10 rats received 10 mg/kg/day of tacrine peros for a period of 5 days
(§1) During the last five days of treatment, the rats were placed under the common learning conditions of the three models between 10.00 a.m. and 11.00 a.m. (see below).
(§2) During the last five days of treatment, at 10.00 a.m. (1 hour after the administration of Cinnamoyl-Gly-Phe-PrONH2), the animals were placed into a learning cage for sound avoidance conditioning (Conditioning avoidance response). The animals learned to climb a pole first to escape from and then to avoid an electric shock. This method was standardized and quantified. (see Le Poncin M., Lafitte J. C., Rapin J. R., Sound Avoidance Conditioning and a Mathematical approach to the description of acquisition performance, Math. Biosciences 59 (1982) 242-268).
(§3) For a period of five days, the animals were placed everyday under these learning conditions for a total of ten tests a day. Results are expressed as percentage of adequate responses, and the kinetics of the responses is represented by a multi-exponential maximum curve.
(§4) The curve maximum represents the learning capacities. The slope of the curve evaluates the learning speed. The area under the curve (AUC) represents a good evaluation of all conditioning parameters. The maximum value of the area under the curve is 500, if the animals show 100% adequate responses as early as Day 0. In fact, an average area under the curve is calculated per day, what amounts to a maximum value of 100. In the absolute control animals, this average area under the curve is equal to 40+/−4.

hippocampal neurons = assay: Gp120 model: neuronal count in the CA III layers of the hippocampus; settings: percentage of the control group, treatment 10 mg/kg/day for 5 days
Procedure: After the last learning session, the rats were sacrificed by means of decapitation, and the brain was isolated and frozen to −80° C. with liquid nitrogen. Cuts of a thickness of 50 μm were obtained in a “cryo-cut”, and the neurons are counted in the CA III layers of the hippocampus under a microscope. The results are expressed as percentage of the control group.

[2] = system: rats given dexamethasone (dexamethasone model); assay: Dexamethasone model: sound avoidance conditioning; settings: for percentage of avoidance, Day 0 / percentage of avoidance, Day 1 / percentage of avoidance, Day 2 / percentage of avoidance, Day 3 / percentage of avoidance, Day 4: dexamethasone 50 mg/kg/day; for percentage of avoidance, Day 0: learning Day 0; for percentage of avoidance, Day 1: learning Day 1; for percentage of avoidance, Day 2: learning Day 2; for percentage of avoidance, Day 3: learning Day 3; for percentage of avoidance, Day 4: learning Day 4; for effect on learning capacity (in words) / AUC (average area under the learning curve per day): dexamethasone model; for AUC (average area under the learning curve per day): maximum value 100
Procedure: (§5) 40 rats were kept and operated as described above. Then, they were divided into the following groups: • one group of 10 rats which received 5 μl/day of physiological serum • one group of 30 rats which received 50 mg/kg/day dexamethasone, dissolved in physiological serum.
as §1, §2, §3, §4

[3] = system: glucocorticoid receptors of the hippocampus; assay: Dexamethasone model: determination of the corticoide receptors in the hippocampus (3H-dexamethasone binding); settings: for Type I receptors in Femtomol/mg protein: dexamethasone 50 mg/kg/day, hippocampi removed after the last learning session; for effect on number of receptors of hippocampus neurons (in words): dexamethasone model
Procedure: as §5
After the last learning session at 10.00 a.m., the rats were sacrificed by means of decapitation, and the hippocampi were quickly removed and put on a plate cooled to 0° C. The number of glucocorticoid receptors was determined by a binding method using a labeled corticoid and a specific inhibitor to the binding of the corticoid to the receptor (here a total agonist). The protein content was measured by Lowry's method.
The hippocampi of each rat were homogenized in 2 ml of sodium EDTA Glycerol molybdate buffer. The homogenate was centrifugated at 100.000 g for 60 minutes. An aliquot of the supernatant was diluted in distilled water, and the protein content was measured by Lowry's method.
The rest of the supernatant was divided into three parts of 0.2 ml each. Increasing concentrations (25, 50 and 75 nmoles/ml) of dexamethasone 3H (Amersham 50 Ci/mM) were added to these parts. Three other preparations were carried out under the same conditions, while a saturating quantity of a total […] of the receptors (RU 28362) was added to obtain a non-specific binding of the labeled dexamethasone.
After one night of incubation at 4° C., charcoal/dextran was added to absorb […] dexamethasone. After centrifugation, the radioactivity of the supernatant was measured by liquid scintillation.
The radioactive quantities of the dexamethasone bound to the protein content are recorded. Results are expressed in femtomoles of the labeled corticoid bound to the receptor per mg of proteins.

[4] = system: rats given vincristine (vincristine model); assay: Vincristine model: sound avoidance conditioning; settings: for percentage of avoidance, Day 0 / percentage of avoidance, Day 1 / percentage of avoidance, Day 2 / percentage of avoidance, Day 3 / percentage of avoidance, Day 4: vincristine 5 μg/kg/day for 5 days; for percentage of avoidance, Day 0: learning Day 0; for percentage of avoidance, Day 1: learning Day 1; for percentage of avoidance, Day 2: learning Day 2; for percentage of avoidance, Day 3: learning Day 3; for percentage of avoidance, Day 4: learning Day 4; for AUC pro Tag: average area under the learning curve per day, maximum value 100
Procedure: Rats were kept and treated as described above in 3. Then they were divided into the following groups: • one group of 10 rats which received 5 μl/day of physiological serum over a period of 5 days • one group of 30 rats which received 5 μl/day of physiological serum containing 5 μg/kg vincristine over a period of 5 days
A dosage of 5 μg/kg/day causes a 40 to 60% loss of the hippocampal arborization.
After the last administration, the second group of 30 rats was divided at random into three sub-groups and treated as described above in 3.
as §2, §3, §4

Row | Structure (SMILES) | percentage of avoidance, Day 0 [1] | percentage of avoidance, Day 1 [1] | percentage of avoidance, Day 2 [1] | percentage of avoidance, Day 3 [1] | percentage of avoidance, Day 4 [1] | effect on learning parameters (in words) [1] | AUC (average area under the learning curve per day) [1] | Percentage of hippocampal neurons (hippocampal neurons) | percentage of avoidance, Day 0 [2] | percentage of avoidance, Day 1 [2] | percentage of avoidance, Day 2 [2] | percentage of avoidance, Day 3 [2] | percentage of avoidance, Day 4 [2] | effect on learning capacity (in words) [2] | AUC (average area under the learning curve per day) [2] | Type I receptors in Femtomol/mg protein [3] | effect on number of receptors of hippocampus neurons (in words) [3] | percentage of avoidance, Day 0 [4] | percentage of avoidance, Day 1 [4] | percentage of avoidance, Day 2 [4] | other results
1 | CC[C@]1(O)C[C@H]2CN(CCc3c([nH]c4ccccc34)[C@@](C(=O)OC)(c3cc4c(cc3OC)N(C=O)[C@H]3[C@@](O)(C(=O)OC)[C@H](OC(C)=O)[C@]5(CC)C=CCN6CC[C@]43[C@@H]65)C2)C1 [vincristine] | – | – | – | – | – | – | – | – | – | – | – | – | – | – | – | – | – | – | – | – | loss of the hippocampal arborization (hippocampal arborization): 40 to 60%
2 | NC(=O)[C@@H]1CCCN1C(=O)[C@H](Cc1ccccc1)NC(=O)CNC(=O)C=Cc1ccccc1 [tripeptide derivative, cinnamoyl-glycyl-L-phenylalanyl-L-prolineamide] | 0% | 5 +/− 2% | **18 +/− 2% | **32 +/− 2% | **43 +/− 3% | improvement of the learning capacities | **19.6 +/− 1.8 | *54 ± 3% | 0% | 8 +/− 3% | **28 +/− 3% | **68 +/− 3% | **77 +/− 3% | considerably restores the learning capacity | **36.2 +/− 1.2 | **85 ± 9 Femtomol/mg protein | significant increase of the number of receptors | 0% | 5 +/− 2% | **20 +/− 2% | effect on learning parameters (in words) ([1]; listed as Cinnamoyl-Gly-Phe-ProNH2): partly restores the learning parameters; percentage of avoidance, Day 3 [4]: **45 +/− 3%; percentage of avoidance, Day 4 [4]: **53 +/− 3%; AUC pro Tag ([4]; vincristine model): **24.6 +/− 1.0
3 | Nc1c2c(nc3ccccc13)CCCC2 [tacrine] | 0% | 5 +/− 2% | **18 +/− 2% | **31 +/− 3% | **42 +/− 4% | partly restores the learning parameters | 19.4 +/− 2.2 | 45 ± 3% | 0% | 5 +/− 2% | 15 +/− 3% | 42 +/− 4% | 52 +/− 4% | does not show any effect | 22.8 +/− 1.3 | 46 ± 5 Femtomol/mg protein | does not show any effect | 0% | 2 +/− 1% | 7 +/− 2% | percentage of avoidance, Day 3 [4]: 19 +/− 2%; percentage of avoidance, Day 4 [4]: 28 +/− 3%; effect on learning capacities (in words) ([4]; vincristine model): does not show an effect; AUC pro Tag ([4]; vincristine model): 11.2 +/− 0.8
4 | C[C@@H]1C[C@H]2[C@@H]3CCC4=CC(=O)C=C[C@]4(C)[C@@]3(F)[C@@H](O)C[C@]2(C)[C@@]1(O)C(=O)CO [dexamethasone] | – | – | – | – | – | – | – | – | – | – | – | – | – | – | – | – | – | – | – | – | decrease in the number of corticoide receptors in the hippocampus ([3]; dexamethasone, dosage and treatment time of this experiment): ~60%
